Key:
Type in all cases: cell-based, mouse
[1] = tested on: GFP transgene on the inactive X (Xi-TgGFP fibroblasts); assay: Assay for the reactivation of Xi-TgGFP (GFP RT-qPCR); conditions: single drug 0.3 μM, shControl
Description: Xi-TgGFP (68-5-11) tail-tip fibroblasts (TTF) were initially derived from a single female pup, a daughter of a cross between aM castaneus male and aM musculus female, homozygous for an X-linked GFP transgene driven by a strong, ubiquitous promoter (58). The fibroblasts were immortalized by SV40 transformation, and clonal lines were derived from individual GFP-negative cells selected by fluorescence-activated cell sorting. In our experience, occasional clones with undetectable GFP expression nevertheless have the transgene located on the active X chromosome.
A cocktail of 3 shRNA viruses were used for infections (Table 2) followed with puromycin selection using standard methodology. In all the experiments, polyclonal knock down cells were used.
RNA was isolated by Trizol twice, with an intermittent TurboDNase treatment after the first isolation for 30 min at 37° C. One μg RNA was used for each of the RT+ and RT− reactions (Superscript III, Invitrogen) followed by the SYBR green qPCR using the primers listed in Table 3, with annealing temperature of 60° C. for 45 cycles. The relative efficiency of Xi-TgGFP reactivations was calculated by comparing to U1 snRNA as the internal control.

[2] = Drug concentration relative to IC50 / toxicity in fibroblasts; conditions: 0.3 μM
[3] = tested on: Mecp2 on the Xi (Mecp2:luciferase fusion); assay: Luciferase screen in Mecp2-Luc fusion Xi cell line
Description: To determine whether an LNA targeting XIST could also be used in addition to or as an alternative to an agent described herein, experiments were performed in the following cells: immortalized monoclonal MEFs with the reporter GFP (Bird) or LUC (Bedalov) fused to Mecp2, on the Xi or Xa, immortalized human fibroblasts from a […] with Rett syndrome (Coriell) and primary mouse cortical neurons.
The LNAs were designed with the Exiqon web tool. Xist LNA for mouse ([…]; SEQ ID NO:50) targets exon 1 between rep C and rep D. The human Xist LNAs target the following sequences: A1: […]; SEQ ID NO:51; A2: […]; SEQ ID NO:52; A3: […]; SEQ ID NO:53. […] 5-azadeoxycitidine (in DMSO) was added to a final concentration of 0.5 μM (except in the titration experiment 0.1-2.5 μM).
Luciferase experiments were performed on a Microbeta2 LumiJet with a luciferase assay system (Promega). […] Afterwards, the cells were trypsinized, washed, and lysed using cell culture lysis reagent. Normalized measurements were performed in 96 well plates, during 10 seconds after a 2 second incubation period.

[4] = trial 1, 20 uM LNA, 0.5 uM aza, 3 days, 1 10^5 cells/ml, 24-well

**Q.** With `Nc1ncn([C@@H]2O[C@H](CO)[C@@H](O)[C@H]2O)c(=O)n1` [5′-azacytidine, 4-amino-1-beta-D-ribofuranosyl-s-triazin-2(1H)-one] as the compound, how does the “GFP reactivation” value [1] read?
**A.** Its value is “minimally reactivated GFP”.

**Q.** And the “Toxicity at the concentration used” value [2]?
**A.** Its value is “nontoxic”.

**Q.** For `Nc1ncn([C@H]2C[C@H](O)[C@@H](CO)O2)c(=O)n1` [AzadC, 5-aza-2′-deoxycytidine], which “Reactivation together with Xist LNA” value ([3]; added to Xist LNA, 0.5 μM, reporter not specified) is on record?
**A.** The value was “Synergistic reactivation”.

**Q.** With `COc1cc([C@@H]2c3cc4c(cc3[C@@H](O[C@@H]3O[C@@H]5CO[C@@H](C)O[C@H]5[C@H](O)[C@H]3O)[C@H]3COC(=O)[C@H]23)OCO4)cc(OC)c1O` [etoposide] as the compound, how does the “GFP reactivation” value [1] read?
**A.** The value was “minimally reactivated GFP”.

**Q.** Which LCPS [3, 4] does the source give for “xist: Xist LNA for mouse (TCTTGGTTACTAACAG; SEQ ID NO:50), targets exon 1 between rep C and rep D (LNA-modified, pattern not given here)” here?
**A.** Its LCPS is 0.

**Q.** And the “raw CPS” value [3, 4]?
**A.** The value was 29.8.

Reference: patent US11912994B2 (The General Hospital Corporation, priority 2015, dated 2024)
